Series [1] has as its system rat model of hyperlipidemia induced by high cholesterol diet. In words: Rat model of hyperlipidemia induced by high cholesterol diet (serum TG, NEFA). The series is classed as in vivo, Sprague-Dawley rats. The conditions noted are these: for Serum TG / Serum NEFA: mean ± SD, n=6. The text has this: On the day before the start of the administration (Day 0), the animals were divided into 7 groups based on body weights and serum indicators and were continually fed with the high-cholesterol diet. The treatment groups were orally dosed with either compound or vehicle while continuing the high-cholesterol diet for a total of 1 week. The animals were weighed daily before the treatment, and the compounds were given at 9:00-9:30 in the morning based on the body weight of the day.

Series [2] deals with uninephrectomied db/db mice. In words: Diabetic nephropathy pharmacodynamic model (uninephrectomied db/db mice). The settings on record: Compound 2 treatment, oral once per day.
Method: Housing temperature was maintained at 22-26° C. and humidity at 40%-60%. Mice were allowed to access food and water ad libitum. […] Buprenorphine was applied after surgery.
Two weeks after surgery, db/db mice were randomly assigned into 5 groups. Wild type mice were used for the control animals. […] Compounds were orally administrated once per day for 10 weeks.
At the 5th and 9th week after compound administration, mice were placed in metabolic cages for urine collection. Albumin level was measured for 24 hr albumin excretion calculation. At the 10th week after treatment, the animals were sacrificed for kidney dissection. The kidney was fixed in 10% neutral buffed formalin, then paraffin-embedded for histopathological analysis. Glomerulosclerosis was assessed by evaluating glomerular basement membrane, mesangial expansion, nodular sclerosis and glomerulosclerosis.
Graphpad 8.0 software was used for statistical analysis. The difference between the values were analyzed with one-way ANOVA. The difference between histopathological score was analyzed with Kruskal-Wallis nonparameter test.
For series [3], the system named is db/db type 2 diabetes model. As to the kind of experiment: Pharmacodynamics study on the db/db type 2 diabetes model. The conditions noted are these: for Statistical difference (p) of the blood glucose level between treatment group and vehicle group: random blood glucose.
From the text: 45 db/db mice were evenly divided into 5 groups before the initiation of treatment based on the body weights, serum triglyceride (TG) levels, and random blood glucose levels.
All animals were weighed daily before each dosing and treated daily for 14 consecutive days.
All the data was imported into an Excel file and presented as Mean±SEM. Graphpad Prism 7.0 software was used for data statistical analysis by One-way or Two-way ANOVA, with P<0.05 as the criterion of significant differences.
Series [4] in a line: 7-day repeated oral gavage, body weights of ICR mice. The series is classed as in vivo. The conditions noted are these: for Weight Gain compared with Day 0: n=10. An excerpt: After 3 days of acclimatization, ICR mice were grouped according to their body weights. The day of grouping is designated as Day 0. […] The animals were weighed and recorded daily.
Where [5] appears, read: Day 0 (day before treatment), group later dosed 0.2 mg/kg oral QD x 7 days.
[6] abbreviates: Day 0 (day before treatment), group later dosed 0.6 mg/kg oral QD x 7 days.
Setting [7] is: Day 8, 0.2 mg/kg oral QD x 7 days.
Setting [8] is: Day 8, 0.6 mg/kg oral QD x 7 days.
[9] abbreviates: 1 mg/kg (Aleglitazar: Day 6; Compound 2: Day 4 and 5; Compounds 4 and 10: Day 4 to Day 7).

Consider `[2H]C([2H])(Cc1nc(-c2ccccc2)oc1C)Oc1ccc(C[C@H](OC)C(=O)O)c2sccc12` (single isomer, unassigned) [Compound 2], for which the “Serum TG” value was 4.27 ± 1.61 mmol/L in series [1] (setting [5]), 4.11 ± 1.10 mmol/L in series [1] (setting [6]), 1.71 ± 0.72 mmol/L in series [1] (setting [7]) and 1.86 ± 0.99 mmol/L in series [1] (setting [8]). For the same compound, the results for the “Serum NEFA” value in series [1] (setting [7]) and in series [1] (setting [8]) were 431.50 ± 151.63 µmol/L and 444.33 ± 119.12 µmol/L, respectively. Further, the “Reduction of urine albumin” value in series [2] is listed as “More than 50%”. Also, the “Average daily body weights compared with the vehicle group” value in series [3] (Day 10 to Day 15, Aleglitazar 0.2 mg/kg, Compound 2 0.05, 0.2, 1 mg/kg) was “significantly higher”. In addition, the “Statistical difference (p) of the blood glucose level between OGTT treatment group and vehicle group” value in series [3] (OGTT Day 14, 0 min, 0.05 mpk) is recorded as “p > 0.05”; in series [3] (OGTT Day 14, 0 min, 0.2 mpk), “p < 0.01”; in series [3] (OGTT Day 14, 0 min, 1 mpk), “p < 0.0001”; in series [3] (OGTT Day 14, 15 min, 0.05 mpk), “p > 0.05”; in series [3] (OGTT Day 14, 15 min, 0.2 mpk), “p > 0.05”; in series [3] (OGTT Day 14, 15 min, 1 mpk), “p < 0.0001”. Also, the “Statistical difference (p) of the blood glucose level between OGTT treatment group and vehicle group” value in series [3] (OGTT Day 14, 30 min, 0.05 mpk) is “p > 0.05”; in series [3] (OGTT Day 14, 30 min, 0.2 mpk), “p > 0.05”; in series [3] (OGTT Day 14, 30 min, 1 mpk), “p < 0.05”; in series [3] (OGTT Day 14, 60 min, 0.05 mpk) it was “p > 0.05”; in series [3] (OGTT Day 14, 60 min, 0.2 mpk), “p < 0.01”; in series [3] (OGTT Day 14, 60 min, 1 mpk), “p < 0.0001”. The “Statistical difference (p) of the blood glucose level between OGTT treatment group and vehicle group” value is “p > 0.05” in series [3] (OGTT Day 14, 120 min, 0.05 mpk); “p < 0.05” in series [3] (OGTT Day 14, 120 min, 0.2 mpk); “p < 0.001” in series [3] (OGTT Day 14, 120 min, 1 mpk). The “Statistical difference (p) of the blood glucose level between treatment group and vehicle group” value in series [3] (Day 0, 0.05 mpk) was “p > 0.05”; in series [3] (Day 0, 0.2 mpk), “p > 0.05”; in series [3] (Day 0, 1 mpk), “p > 0.05”; in series [3] (Day 7, 0.05 mpk), “p > 0.05”; in series [3] (Day 7, 0.2 mpk), “p > 0.05”; in series [3] (Day 7, 1 mpk), “p < 0.05”. The “Statistical difference (p) of the blood glucose level between treatment group and vehicle group” value is “p > 0.05” in series [3] (Day 14, 0.05 mpk); “p < 0.05” in series [3] (Day 14, 0.2 mpk); “p < 0.0001” in series [3] (Day 14, 1 mpk). Also, the “Daily average weight gain compared with the vehicle group” value in series [4] (0.2 mg/kg (Aleglitazar: Day 4 and Day 5; Compound 2: throughout the study)) is recorded as “no significant difference”; in series [4] (setting [9]), “significantly higher”. Moreover, the “Weight Gain compared with Day 0” value in series [4] (Day 1, 0.2 mg/kg oral QD) came to 0.45 ± 0.28 g; in series [4] (Day 1, 1 mg/kg oral QD), 0.4 ± 0.17 g; in series [4] (Day 2, 0.2 mg/kg oral QD), 1.42 ± 0.22 g; in series [4] (Day 2, 1 mg/kg oral QD), 1.57 ± 0.26 g; in series [4] (Day 3, 0.2 mg/kg oral QD) it was 2.56 ± 0.23 g; in series [4] (Day 3, 1 mg/kg oral QD), 2.71 ± 0.19 g. In addition, the “Weight Gain compared with Day 0” value was 2.96 ± 0.23 g in series [4] (Day 4, 0.2 mg/kg oral QD); 3.61 ± 0.19 g in series [4] (Day 4, 1 mg/kg oral QD); 3.73 ± 0.34 g in series [4] (Day 5, 0.2 mg/kg oral QD); 3.96 ± 0.29 g in series [4] (Day 5, 1 mg/kg oral QD); 4.66 ± 0.39 g in series [4] (Day 6, 0.2 mg/kg oral QD); 4.84 ± 0.4 g in series [4] (Day 6, 1 mg/kg oral QD). Besides, the “Weight Gain compared with Day 0” value in series [4] (Day 7, 0.2 mg/kg oral QD) is on record as 5.08 ± 0.42 g; in series [4] (Day 7, 1 mg/kg oral QD) it was 5.44 ± 0.36 g.
For the compound `CO[C@@H](Cc1ccc(OCCc2nc(-c3ccccc3)oc2C)c2ccsc12)C(=O)O` (single isomer, unassigned) [Compound 4], in series [1] (0.2 mg/kg, T-test, P<0.05), the “Serum NEFA compared with Aleglitazar” value is “significantly reduce”. For the same compound, in series [1] (Day 8, both 0.2 mg/kg and 0.6 mg/kg), the “Serum TG and NEFA levels compared with the vehicle group” value was “significantly reduce”.
As for `[2H]c1c([2H])c([2H])c(-c2nc(CCOc3ccc(C[C@H](OC)C(=O)O)c4sccc34)c(C)o2)c([2H])c1[2H]` (single isomer, unassigned) [Compound 4], the “Serum TG” value in series [1] (setting [5]) worked out at 4.22 ± 1.71 mmol/L; in series [1] (setting [6]), 4.00 ± 1.71 mmol/L; in series [1] (setting [7]), 2.46 ± 1.18 mmol/L; in series [1] (setting [8]) it was 1.93 ± 0.58 mmol/L. In addition, the “Serum NEFA” value in series [1] (setting [7]) was determined as 490.33 ± 113.61 µmol/L; in series [1] (setting [8]), 347.83 ± 113.61 µmol/L. The “Daily average weight gain compared with the vehicle group” value in series [4] (setting [9]) is given as “significantly higher”. Further, the “Weight Gain compared with Day 0” value in series [4] (Day 1, 1 mg/kg oral QD) came out at 0.35 ± 0.24 g; in series [4] (Day 2, 1 mg/kg oral QD), 1.45 ± 0.34 g; in series [4] (Day 3, 1 mg/kg oral QD), 2.75 ± 0.41 g; in series [4] (Day 4, 1 mg/kg oral QD), 3.71 ± 0.46 g; in series [4] (Day 5, 1 mg/kg oral QD), 4.26 ± 0.47 g; in series [4] (Day 6, 1 mg/kg oral QD), 5.36 ± 0.54 g. Besides, the “Weight Gain compared with Day 0” value in series [4] (Day 7, 1 mg/kg oral QD) is 5.91 ± 0.56 g.
For the compound `[2H]c1cccc([2H])c1-c1nc(CC([2H])([2H])Oc2ccc(C[C@H](OC)C(=O)O)c3sccc23)c(C)o1` (single isomer, unassigned) [Compound 10], the “Daily average weight gain compared with the vehicle group” value in series [4] (setting [9]) is “significantly higher”. Moreover, the “Weight Gain compared with Day 0” value in series [4] (Day 1, 1 mg/kg oral QD) was 0.34 ± 0.17 g; in series [4] (Day 2, 1 mg/kg oral QD), 1.63 ± 0.41 g; in series [4] (Day 3, 1 mg/kg oral QD), 2.96 ± 0.37 g; in series [4] (Day 4, 1 mg/kg oral QD), 3.85 ± 0.38 g; in series [4] (Day 5, 1 mg/kg oral QD), 4.59 ± 0.39 g; in series [4] (Day 6, 1 mg/kg oral QD), 5.75 ± 0.39 g. The “Weight Gain compared with Day 0” value in series [4] (Day 7, 1 mg/kg oral QD) was 6.11 ± 0.53 g.

(Values after patent US20240270731A1, “[…]” (ALEBUND PHARMACEUTICALS (HONG KONG) LIMITED, priority 2021, published 2024).)
